Results published in publication PMC10518255, “A first-in-class pan-lysyl oxidase inhibitor impairs stromal remodeling and enhances gemcitabine response and survival in pancreatic cancer” (Nature Cancer, 2023).

Experiments:
SSAO = molecular target: T1, SSAO (Homo sapiens, UniProt Q16853); assay: Substrate turnover by H2O2 release, amplex red coupled fluorometric activity assay (Extended Data Fig. 3a); type: biochemical
T1 sequence (Q16853 1-763): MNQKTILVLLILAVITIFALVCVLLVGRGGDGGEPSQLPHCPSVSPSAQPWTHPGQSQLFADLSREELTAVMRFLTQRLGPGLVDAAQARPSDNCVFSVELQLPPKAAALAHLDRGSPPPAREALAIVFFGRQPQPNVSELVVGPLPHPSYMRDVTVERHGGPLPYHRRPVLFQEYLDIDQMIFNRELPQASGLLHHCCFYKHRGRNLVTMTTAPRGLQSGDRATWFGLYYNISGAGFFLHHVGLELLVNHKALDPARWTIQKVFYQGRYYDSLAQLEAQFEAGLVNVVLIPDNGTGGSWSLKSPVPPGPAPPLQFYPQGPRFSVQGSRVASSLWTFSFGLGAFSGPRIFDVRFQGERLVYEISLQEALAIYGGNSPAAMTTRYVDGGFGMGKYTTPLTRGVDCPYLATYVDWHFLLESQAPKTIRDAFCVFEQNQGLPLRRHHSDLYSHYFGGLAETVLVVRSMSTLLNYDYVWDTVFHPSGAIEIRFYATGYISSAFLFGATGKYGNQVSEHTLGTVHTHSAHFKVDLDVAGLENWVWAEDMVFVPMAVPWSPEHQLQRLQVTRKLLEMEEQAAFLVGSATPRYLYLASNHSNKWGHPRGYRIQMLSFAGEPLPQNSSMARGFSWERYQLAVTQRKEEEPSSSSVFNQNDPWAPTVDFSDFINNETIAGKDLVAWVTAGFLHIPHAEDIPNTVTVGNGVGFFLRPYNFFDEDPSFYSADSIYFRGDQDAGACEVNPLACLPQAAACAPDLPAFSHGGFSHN
Text: Specifically, BAPN is oxidized by diamine oxidase (DAO) and semicarbazide-sensitive amine oxidase (SSAO)/vascular adhesion protein 1 (VAP-1) in the vasculature (Extended Data Fig. 3a), which releases hydrogen […] (H2O2) and aldehyde in humans leading to toxicity.
Data presented as mean values +/− SD. f. […] Data presented as mean values +/− SD. […] Data presented as mean values +/− SD. […] Data presented as mean values +/− SD. Ordinary one-way ANOVA for multiple comparison test performed. Source data

MPO = assay: Immunohistochemistry of end-point KPC tumors: myeloperoxidase cell infiltration; type: in vivo, mouse; conditions: KPC tumours at endpoint; individual replicate values (Extended Data 6H)
Procedure: (§1) All tissues or matrices, including patient TMAs, were fixed in 10% buffered formalin and embedded in paraffin. The 4-μm sections of samples were deparaffinized with xylene and rehydrated in graded ethanol washes. For immunohistochemistry, Bond Dewax Solution (AR9222) was used. Antigen retrieval was performed using Bond RX H2(30) protocol: HIER 30 min ER1 (citrate pH 6) OR ER2 (EDTA pH 9) at 100 °C. Slides were quenched in BOND Polymer Refine Detection (Leica Biosystems DS9800). […] Slides were digitized on an Aperio slide scanner and representative areas per tumor acquired and analyzed by researchers blinded to the conditions of the experiment.
(§2) Extended Data Fig. 6 PXS-5505 in combination with gemcitabine in a KPC model. a. Quantification of proliferating cells (Ki67 positive nuclear staining) in KPC tumors at end point, treated as indicated. 5 fields of view (500 μm × 500 μm) per mouse and 10 mice per cohort were scored. […] Quantification of percent coverage of αSMA positive staining in KPC tumors at end point, treated as indicated. 3 fields of view (1000 μm × 1000 μm) per mouse and 10 mice per cohort were scored. […] Quantification of percent coverage of PDGFR-ß positive staining in KPC tumors at end point, treated as indicated. 3 fields of view (1000 μm × 1000 μm) per mouse and 10 mice per cohort were scored. […] 3 fields of view (500 μm × 500 μm) per mouse and 10 mice per cohort were scored. […]

Ki67 = assay: Immunohistochemistry of end-point KPC tumors: proliferating cells; type: in vivo, mouse; conditions: KPC tumors at end point
Procedure: as §1, §2

SMILES	processing as a substrate by SSAO/VAP-1 (SSAO)	Turnover by SSAO as measured by H2O2 release, mean (SSAO; listed as value 30 (unit not given))	Turnover by SSAO as measured by H2O2 release, mean (SSAO; listed as value 60 (unit not given))	Turnover by SSAO as measured by H2O2 release, mean (SSAO; listed as value 300 (unit not given))	number of myeloperoxidase (MPO+) cell infiltration (MPO)	Ki67 positive tumor cells (Ki67)
Cl.Cl.NC/C=C(\F)CS(=O)(=O)c1cccc2cccnc12.O [PXS-5505, (Z)-3-fluoro-4-(quinolin-8-ylsulfonyl)but-2-en-1-amine dihydrochloride monohydrate]	not processed as a substrate	1.019	1.0116	1.1921	11	–
Nc1ccn([C@@H]2O[C@H](CO)[C@@H](O)C2(F)F)c(=O)n1 [Gem, gemcitabine]	–	–	–	–	–	significantly decreasing the number of Ki67 positive tumor cells
